{"source": "paper PMC8267566", "about": "“Human GPR17 missense variants identified in metabolic disease patients have distinct downstream signaling profiles” (The Journal of Biological Chemistry, 2021)", "type_in_all_cases": "cell-based", "key": {"hGPR17L-WT [1]": {"biological_target": "T1, hGPR17L-WT (Homo sapiens, UniProt Q13304)", "T1 construct": "expressed in transfected cells; host or cells: HEK293 (ATCC CRL-1573), transient transfection of pcDNA3-HA-hGPR17L", "assay": "Calcium flux assay", "procedure": "(§1) HEK293 cells were seeded at 20,000 cells/well into black, optical bottom, poly-D-lysine coated 96-well plates. The following day, cells were transiently transfected with pcDNA3-HA-hGPR17L or pcDNA3-HA-hGPR17L-variants using lipofectamine 3000. Twenty-four hours after transfection, the growth medium and transfection mix were decanted and 100 μl/well assay buffer (HBSS, 20 mM HEPES, pH 7.2) and 100 μl/well Calcium 6 loading dye (R8190; Molecular Devices) were added to the plate and incubated at 37 °C, 5% CO2 for 1 h 45 min. Plate was allowed to equilibrate to room temperature on the bench top for 30 min. MDL29,951 diluted in assay buffer was added to the wells and fluorescence (485 nm excitation, 525 nm emission, and 515 nm automatic emission cutoff) was measured using a Molecular Devices FlexStation3 (Molecular Devices). For experiments with pertussis toxin, cells were pretreated with 100 ng/ml pertussis toxin overnight and 100 ng/ml pertussis toxin was included with Calcium 6 loading dye for calcium flux assays."}, "hGPR17L-G136S [2]": {"biological_target": "T2, hGPR17L-G136S (Homo sapiens, UniProt Q13304, G136S)", "T2 construct": "expressed in transfected cells; host or cells: HEK293 (ATCC CRL-1573), transient transfection", "T2 sequence (Q13304 whole entry G136S)": "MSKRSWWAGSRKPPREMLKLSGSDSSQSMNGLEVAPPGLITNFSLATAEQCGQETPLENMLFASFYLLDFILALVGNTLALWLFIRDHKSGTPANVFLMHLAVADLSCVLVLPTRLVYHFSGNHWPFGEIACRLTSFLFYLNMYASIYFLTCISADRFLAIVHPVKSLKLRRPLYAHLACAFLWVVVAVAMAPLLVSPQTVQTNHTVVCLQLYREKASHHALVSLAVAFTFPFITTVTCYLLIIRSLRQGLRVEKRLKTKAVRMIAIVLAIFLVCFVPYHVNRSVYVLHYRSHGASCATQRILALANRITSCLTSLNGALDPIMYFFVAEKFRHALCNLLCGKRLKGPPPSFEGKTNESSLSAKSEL", "assay": "Calcium flux assay", "conditions": "HEK293, read-out: calcium response, % of the maximum response observed for hGPR17L-WT", "procedure": "as §1"}, "hGPR17L-F43L": {"biological_target": "T3, hGPR17L-F43L (Homo sapiens, UniProt Q13304, F43L)", "T3 construct": "expressed in transfected cells; host or cells: HEK293 (ATCC CRL-1573), transient transfection", "T3 sequence (Q13304 whole entry F43L)": "as the sequence (Q13304 whole entry G136S) above, with F43L, S136G counted along it", "assay": "Calcium flux assay", "procedure": "as §1"}, "hGPR17L-V96M [3]": {"biological_target": "T4, hGPR17L-V96M (Homo sapiens, UniProt Q13304, V96M)", "T4 construct": "expressed in transfected cells; host or cells: HEK293 (ATCC CRL-1573), transient transfection", "T4 sequence (Q13304 whole entry V96M)": "as the sequence (Q13304 whole entry G136S) above, with V96M, S136G counted along it", "assay": "Calcium flux assay", "procedure": "as §1"}, "hGPR17L-R248Q": {"biological_target": "T5, hGPR17L-R248Q (Homo sapiens, UniProt Q13304, R248Q)", "T5 construct": "expressed in transfected cells; host or cells: HEK293 (ATCC CRL-1573), transient transfection", "T5 sequence (Q13304 whole entry R248Q)": "as the sequence (Q13304 whole entry G136S) above, with S136G, R248Q counted along it", "assay": "Calcium flux assay", "procedure": "as §1"}, "hGPR17L-A131T": {"biological_target": "T6, hGPR17L-A131T (Homo sapiens, UniProt Q13304, A131T)", "T6 construct": "expressed in transfected cells; host or cells: HEK293 (ATCC CRL-1573), transient transfection", "T6 sequence (Q13304 whole entry A131T)": "as the sequence (Q13304 whole entry G136S) above, with A131T, S136G counted along it", "assay": "Calcium flux assay", "procedure": "as §1"}, "hGPR17L-D105N": {"biological_target": "T7, hGPR17L-D105N (Homo sapiens, UniProt Q13304, D105N)", "T7 construct": "expressed in transfected cells; host or cells: HEK293 (ATCC CRL-1573), transient transfection", "T7 sequence (Q13304 whole entry D105N)": "as the sequence (Q13304 whole entry G136S) above, with D105N, S136G counted along it", "procedure": "(§2) For agonist-mediated stimulatory cAMP assays, HEK293 cells were seeded and transfected as noted above. Cells were treated with 100 ng/ml pertussis toxin overnight (Sigma-Aldrich P2980). Twenty-four hours posttransfection, growth medium and transfection mix were aspirated and replaced with 100 μl/well equilibration medium (2% Promega GloSensor cAMP reagent [E1291; Promega Corporation] in CO2-independent medium) containing 100 ng/ml pertussis toxin and incubated at room temperature for 2 h. Baseline luminescence was read every 2 min on a Molecular Devices SpectraMax iD5 plate reader (Molecular Devices) at ambient room temperature for 8 min. Subsequently, 10 μl/well MDL29,951 diluted in assay buffer (HBSS, 20 mM HEPES, pH 7.2) was added and luminescence was read every 2 min for 16 min. Within each well, the luminescence values for each time point were normalized to their average baseline luminescence values. The average luminescence values for the time points between 8 and 16 min after MDL29,951 addition were expressed as a percentage of the maximum response observed for hGPR17L-WT."}, "hGPR17L-WT [4]": {"biological_target": "T1, hGPR17L-WT", "procedure": "as §2"}, "hGPR17L-G136S [5]": {"biological_target": "T2, hGPR17L-G136S", "procedure": "as §2"}, "hGPR17L-V96M [6]": {"biological_target": "T4, hGPR17L-V96M", "procedure": "as §2"}, "[7]": {"conditions": "read-out: Ca2+ EC50, HEK293, calcium mobilization"}}, "note": "Where two headings read alike, the source gives them in different places."}
{"smiles": "O=C(O)CCc1c(C(=O)O)[nH]c2cc(Cl)cc(Cl)c12", "note": "[MDL29,951]", "values": [{"measurement": "calcium flux efficacy with pertussis toxin (% of control pretreatment)", "setting": "hGPR17L-WT [1]", "result": "82 ± 1.4 % of control pretreatment"}, {"measurement": "calcium flux potency with pertussis toxin, fold shift in EC50", "setting": "hGPR17L-WT [1]", "result": "approximately 2.5 fold"}, {"measurement": "Ca2+ Efficacy (% of WT Emax)", "setting": "hGPR17L-WT [1]; hGPR17L-WT, HEK293", "result": "100 % of WT Emax"}, {"measurement": "maximum stimulation of calcium mobilization", "setting": "hGPR17L-WT [1]; hGPR17L-WT, HEK293", "result": "1.51 ± 0.14", "unit": "Peak ΔF/F"}, {"measurement": "Ca2+ pEC50 ± SEM", "setting": "hGPR17L-WT [1]; hGPR17L-WT, HEK293, calcium mobilization", "result": "7.09 ± 0.11"}, {"measurement": "EC50", "setting": "hGPR17L-WT [1]; read-out: Ca2+ EC50, hGPR17L-WT, HEK293, calcium mobilization", "result": 82, "unit": "nM"}, {"measurement": "Emax", "setting": "hGPR17L-G136S [2]", "result": "3.6 ± 1.3", "unit": "%"}, {"measurement": "Ca2+ Efficacy (% of WT Emax)", "setting": "hGPR17L-F43L; HEK293", "result": "97 ± 3.9 % of WT Emax"}, {"measurement": "Ca2+ pEC50 ± SEM", "setting": "hGPR17L-F43L; HEK293, calcium mobilization", "result": "7.25 ± 0.19"}, {"measurement": "EC50", "setting": "hGPR17L-F43L; [7]", "result": 57, "unit": "nM"}, {"measurement": "calcium mobilization in the presence of pertussis toxin", "setting": "hGPR17L-V96M [3]", "result": "reduced calcium mobilization"}, {"measurement": "fold less potent calcium response vs hGPR17L-WT", "setting": "hGPR17L-V96M [3]; hGPR17L-V96M", "result": "6–7 fold"}, {"measurement": "reduction of efficacy of calcium response vs hGPR17L-WT", "setting": "hGPR17L-V96M [3]; hGPR17L-V96M", "result": "approximately 70%"}, {"measurement": "Ca2+ Efficacy (% of WT Emax)", "setting": "hGPR17L-V96M [3]; hGPR17L-V96M, HEK293", "result": "31 ± 4.7 % of WT Emax"}, {"measurement": "Ca2+ pEC50 ± SEM", "setting": "hGPR17L-V96M [3]; hGPR17L-V96M, HEK293, calcium mobilization", "result": "6.27 ± 0.05"}, {"measurement": "EC50", "setting": "hGPR17L-V96M [3]; read-out: Ca2+ EC50, hGPR17L-V96M, HEK293, calcium mobilization", "result": 540, "unit": "nM"}, {"measurement": "Ca2+ Efficacy (% of WT Emax)", "setting": "hGPR17L-R248Q; HEK293", "result": "103 ± 25 % of WT Emax"}, {"measurement": "Ca2+ pEC50 ± SEM", "setting": "hGPR17L-R248Q; HEK293, calcium mobilization", "result": "6.92 ± 0.02"}, {"measurement": "EC50", "setting": "hGPR17L-R248Q; [7]", "result": 120, "unit": "nM"}, {"measurement": "Ca2+ Efficacy (% of WT Emax)", "setting": "hGPR17L-A131T; HEK293", "result": "109 ± 8.9 % of WT Emax"}, {"measurement": "Ca2+ pEC50 ± SEM", "setting": "hGPR17L-A131T; HEK293, calcium mobilization", "result": "6.63 ± 0.08"}, {"measurement": "EC50", "setting": "hGPR17L-A131T; [7]", "result": 230, "unit": "nM"}, {"measurement": "stimulatory cAMP response", "setting": "hGPR17L-D105N", "result": "unable to promote stimulatory cAMP responses"}, {"measurement": "Stimulatory cAMP Efficacy (% of WT Emax)", "setting": "hGPR17L-WT [4]", "result": "100 % of WT Emax"}, {"measurement": "Stimulatory cAMP pEC50 ± SEM", "setting": "hGPR17L-WT [4]", "result": "5.18 ± 0.04"}, {"measurement": "maximum stimulatory cAMP response", "setting": "hGPR17L-WT [4]", "result": "1.21 ± 0.24 ΔRLU/RLU"}, {"measurement": "EC50", "setting": "hGPR17L-WT [4]; read-out: Stimulatory cAMP EC50", "result": 6600, "unit": "nM"}, {"measurement": "stimulatory cAMP response", "setting": "hGPR17L-G136S [5]", "result": "unable to promote stimulatory cAMP responses"}, {"measurement": "stimulatory cAMP response", "setting": "hGPR17L-V96M [6]", "result": "unable to promote stimulatory cAMP responses"}]}
